target: T1, BCL6::BCOR (Homo sapiens, UniProt P41182, C67R/C84N/C8Q); test: BCL6::BCOR ULight TR-FRET assay; type: binding
T1 construct: BCL6 (amino acids 5 to 129, with the following changes to the natural protein); made in house; host or cells: E. coli
Procedure, shortened: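 Biotin-Avi BCL6 (aa 5–129, C8Q/C67R/C84N; E. coli), 1 nM, preincubated 30 min RT with compound (11-point fivefold series, top 100 μM) in HEPES pH 7.3 buffer; then 100 nM ULight-BCOR peptide plus 0.75 nM streptavidin-Eu added, 240 min RT. TR-FRET read, normalized to DMSO controls with/without BCL6.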

SMILES | IC50
CNC(=O)COc1cc2cc(Nc3nc(N4CCCC(C)(C#N)C4)ncc3Cl)ccc2n(C)c1=O (stereo not shown) [Compound I-69] | 23 nM
CNC(=O)COc1cc2cc(Nc3nc(N4CCC(C(=O)N(C)C)CC4)ncc3Cl)cc(OC)c2n(C)c1=O [Compound I-148, 1-[5-chloro-4-({8-methoxy-1-methyl-3-[(methylcarbamoyl)methoxy]-2-oxo-1,2-dihydroquinolin-6-yl}amino)pyrimidin-2-yl]-N,N-dimethylpiperidine-4-carboxamide] | 3 nM
CNC(=O)COc1cc2cc(Nc3nc(N4CCN(c5ccccn5)CC4)ncc3Cl)ccc2n(C)c1=O [Compound I-15] | 32 nM
CNC(=O)COc1cc2cc(Nc3nc(N4C[C@H](C)C[C@@H](NC)C4)ncc3Cl)ccc2n(C)c1=O [Compound I-8, 2-{[6-({5-chloro-2-[(3R,5R)-3-methyl-5-(methylamino)piperidin-1-yl]pyrimidin-4-yl}amino)-1-methyl-2-oxo-1,2-dihydroquinolin-3-yl]oxy}-N-methylacetamide] | 21 nM
CNC(=O)COc1cc2cc(Nc3nc(N4CCC(C(=O)N(C)C)CC4)ncc3Cl)c(OC)cc2n(C)c1=O [Compound I-163] | 60 nM
Cn1c(=O)c(OCC(=O)O)cc2cc(Nc3nc(N4CCc5ccccc5CC4)ncc3Cl)ccc21 [Compound I-106] | 210 nM
C[C@@H]1C[C@H](C)CN(c2ccc(Cl)c(Nc3ccc4c(c3)cc(OCC(=O)O)c(=O)n4C)n2)C1 [Compound I-176, 2-{[6-({3-chloro-6-[cis-3,5-dimethylpiperidin-1-yl]pyridin-2-yl}amino)-1-methyl-2-oxo-1,2-dihydroquinolin-3-yl]oxy}acetic acid] | 106 nM
Cc1cc(C)n(-c2ncc(Cl)c(Nc3ccc4c(c3)cc(OCC(=O)O)c(=O)n4C)n2)n1 [Compound I-153, 2-[(6-{[5-chloro-2-(3,5-dimethyl-1H-pyrazol-1-yl)pyrimidin-4-yl]amino}-1-methyl-2-oxo-1,2-dihydroquinolin-3-yl)oxy]acetic acid] | 11 nM
CNC(=O)COc1cc2cc(Nc3nc(N4C[C@H](C)C[C@H](C)C4)ccc3Cl)ccc2n(C)c1=O [Compound I-177, 2-{[6-({3-chloro-6-[cis-3,5-dimethylpiperidin-1-yl]pyridin-2-yl}amino)-1-methyl-2-oxo-1,2-dihydroquinolin-3-yl]oxy}-N-methylacetamide] | 87 nM

The remaining compounds from weak to strong by IC50, led by results:

IC50 | SMILES
10 nM | CC1CCN(c2ncc(Cl)c(Nc3ccc4c(c3)cc(OCC(=O)O)c(=O)n4C)n2)CC1 [Compound I-121]
10 nM | CNC(=O)COc1cc2cc(Nc3nc(N4CCC(F)CC4)ncc3Cl)ccc2n(C(C)C)c1=O [Compound I-84]
9 nM | CNC(=O)COc1cc2cc(Nc3nc(N4C[C@H](F)C[C@@H](F)C4)ncc3Cl)ccc2n(C)c1=O [Compound I-64]
9 nM | Cn1cnc2c1CCN(c1ncc(Cl)c(Nc3ccc4c(c3)cc(OCC(=O)O)c(=O)n4C)n1)C2 [Compound I-115]
9 nM | CNC(=O)COc1cc2cc(Nc3nc(N4CCC(CN5CCOCC5)CC4)ncc3Cl)ccc2n(C)c1=O [Compound I-44]
8 nM | CNC(=O)COc1cc2cc(Nc3nc(N4CCC(C)CC4)ncc3Cl)ccc2n(C)c1=O [Compound I-35]
7 nM | CNC(=O)COc1cc2cc(Nc3nc(N4C[C@H](C)C[C@H](C)C4)ncc3Cl)cc(OC)c2n(C)c1=O [Compound I-99]
6 nM | CNC(=O)COc1cc2cc(Nc3nc(N4CCC[C@@H](C(=O)N(C)C)C4)ncc3Cl)ccc2n(C)c1=O [Compound I-168, (3R)-1-[5-chloro-4-({1-methyl-3-[(methylcarbamoyl)methoxy]-2-oxo-1,2-dihydroquinolin-6-yl}amino)pyrimidin-2-yl]-N,N-dimethylpiperidine-3-carboxamide]
6 nM | CNC(=O)COc1cc2cc(Nc3nc(N4CCC[C@@H](C(=O)N5CCN(C)CC5)C4)ncc3Cl)ccc2n(C)c1=O [Compound I-169]
6 nM | C[C@@H]1C[C@H](C)CN(c2ncc(Cl)c(Nc3ccc4c(c3)cc(OCC(=O)OCCN(C)C)c(=O)n4C)n2)C1 [Compound I-139, 2-(dimethylamino)ethyl 2-{[6-({5-chloro-2-[cis-3,5-dimethylpiperidin-1-yl]pyrimidin-4-yl}amino)-1-methyl-2-oxo-1,2-dihydroquinolin-3-yl]oxy}acetate]
6 nM | CNC(=O)COc1cc2cc(Nc3nc(N4CCC(C(=O)NCCCCCCN)CC4)ncc3Cl)ccc2n(C)c1=O [Compound I-146]
5 nM | CNC(=O)COc1cc2cc(Nc3nc(N4CCC(C(=O)N(C)C)CC4)ncc3Cl)ccc2n(C)c1=O [Compound I-157]
5 nM | CNC(=O)COc1cc2cc(Nc3nc(N4CCC(C(=O)NCCOCCOCCN)CC4)ncc3Cl)ccc2n(C)c1=O [Compound I-147]

— patent US11001570B2, “6-amino-quinolinone compounds and derivatives as BCL6 inhibitors” (Boehringer Ingelheim International GmbH, priority 2016, dated 2021)
